Results: patent US20220380341A1, “INHIBITORS OF HIV-1 NEF FOR THE TREATMENT OF HIV DISEASE” (priority 2018, published 2022)
Where “and” joins values, the source holds several entries; their conditions need not be identical. Equal values may be shown once. Read-outs that look alike come from different tables or passages of the source.

How the values were obtained:
HIV-1NL4-3 = assay: HIV-1 infectivity assay in TZM-bl reporter cell line (LTR-luciferase, 48 h); format: cell-based; details: for inhibition at 1 µM: Human immunodeficiency virus 1, TZM-bl
How it was run: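 Compounds were tested at 1 μM in TZM-bl cells infected with HIV-1NL4-3. Infectivity was read as luciferase signal 48 h after infection and expressed as percent inhibition, normalized between DMSO-treated wild-type infection (0%) and DMSO-treated Nef-defective HIV-1 infection (100% of the Nef-dependent effect).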

TZM-bl cell line = format: cell-based; details: human, 1 μM
How it was run: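 TZM-bl cells (HIV-1 LTR-luciferase) infected with HIV-1NL4-3 with compound at 1 μM; luciferase read 48 h later. Percent inhibition normalized to DMSO wild-type infection (0%) and Nef-defective HIV-1 infection (100% of Nef-dependent effect). Viability in uninfected TZM-bl cells by Cell Titer Blue.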

HIV-1 NefNL4-3 = HIV-1 NefNL4-3 (Human immunodeficiency virus type 1 group M subtype B, UniProt P03406, A33V/T15A/T51N/V11I); assay: Surface plasmon resonance binding to recombinant full-length Nef (NL4-3); details: for T, minutes (residence time): 2-step induced fit, T = 1/koff2; for RU30/RUNef (extent of binding): response units at 30 μM relative to Nef immobilized on the SPR chip
HIV-1 Nef SF2 = target: T1, HIV-1 Nef SF2 (Human immunodeficiency virus type 1 group M subtype B, UniProt P03407); assay: biochemical; format: binding; details: two-step induced-fit model, Reichert SPR, read-out: Reichert SPR Nef SF2 (M) two-step fitting
T1 construct: made in house

HIV-1 NL4-3 = assay: HIV-1 replication in normal donor PBMCs (p24 Gag AlphaLISA); format: cell-based; details: Table 1, 4 days, words (Not active, Borderline) where no bound is given
How it was run: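 PHA/IL-2-activated donor PBMCs infected with HIV-1 NL4-3, wild-type or Δ-Nef, with inhibitor (1–1,000 nM, 0.1% DMSO) in IL-2 medium. Lysates taken after 4 days and p24 quantified by AlphaLISA against a p24 standard; IC50 by non-linear regression, CC50 by CellTiter-Blue in uninfected cells.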

uninfected PBMCs = format: cell-based; details: human
Description: FIG. 4. Inhibition of HIV-1 replication by compounds disclosed herein in PBMCs. Donor PBMCs were infected with HIV-1 in the presence of inhibitor concentrations ranging from 1 to 1,000 nM or the DMSO carrier solvent as a negative control (0.1% DMSO final). Replication was assessed by p24 Gag AlphaLISA (Perkin Elmer) […]. Each donor was also infected with Nef-defective HIV-1 to establish the baseline for Nef-dependent enhancement of replication in each culture. Cytotoxicity was assessed in uninfected PBMCs over the same incubation period using the CellTiter-Blue assay (Promega). Data were fit by non-linear regression analysis (GraphPad Prism v.7.04) to determine the IC50 and CC50 values shown.
Non-HLA-typed buffy coats (Source: Pittsburgh Central Blood Bank, #E3755) are received and processed within 24 hours of blood donation. PBMCs are isolated via rocking for RBC separation following 1:1 dilution with PBS, followed by Ficoll gradient centrifugation. The lymphocyte fraction is removed and washed several times for a final concentration of ˜150-300×10^6 cells per donor. Cells are activated for 3 days with 1-5 μg/mL PHA (Sigma) and 50 U/mL IL-2. Cells are plated at 750,000 cells/ml and viability is checked at day 3 using the Cell Titer Blue assay (Promega). If cells are >90% viable, then they are infected with HIV-1 NL4-3, wild-type or Δ-Nef mutant (input typically 30-500 pg/mL p24 capsid equivalents) in the presence or absence of Nef inhibitor analogs. IL-2 is included in the media at the time of infection. After 4 days, cells are lysed with 1% Triton X-100 for 1.5 h, checked for viability via Cell Titer Blue, and frozen/stored at −20° C. HIV-1 replication is assessed with a high-sensitivity HIV-1 p24 AlphaLISA assay (Perkin Elmer) in ½-volume 96-well plates, using one-half of the recommended assay volumes for all reagents (including samples). Assays are read on the BioTek Cytation5 instrument; readout is in AlphaUnits and replication in p24 pg/mL is determined using an HIV-1 p24 capsid protein standard included in the Alpha kit.

[1] = target: Nef from SIV (strain mac239) (Simian immunodeficiency virus, UniProt Q5QGG3); assay: biochemical
Description: Also shown are SPR data recorded on a Reichert 4-channel SPR instrument. […] Recombinant Nef is immobilized on the biosensor surface, and each compound is injected and association/dissociation kinetics are recorded. The resulting data for the 3 isoforms are each best-fit using both a two-site model and a two-step, induced-fit model. Dissociation constants (KD), calculated from the kinetic association and dissociation constants from all three isoforms, are shown in columns 6-7. Data were fit using three regimes and the resulting KD: from each model are shown in the Table: 1:1 Langmuir fit; 2-site fit, which yields low and high affinity components; and a 2-step induced fit model.

[2] = 1.0 μM, TZM-bl reporter cell line, Table 4, read-out: % Infectivity Inhibition
[3] = 1 μM, TZM-bl, normalized: DMSO wild-type HIV-1 = 0%, Nef-defective HIV-1 = 100%, read-out: HIV-1 Infectivity % Inhibition norm. to Δ-Nef @ 1 μM
[4] = KD, M, Table 4, SPR fit 2-step induced fit, KD = koff/kon × koff2/(koff2 + kon2)
[5] = Nef NL4-3 Binding, SPR 2-state fitting KD, Table 1, 2-step induced-fit model
[6] = Reichert SPR Nef NL43 (M) two-step fitting, KD, two-step induced-fit model, Reichert SPR, Table 3
[7] = read-out: Nef NL4-3 Binding, SPR 1:1 or 2-site fitting KD2, Table 1, 2-site fit, second component
[8] = 48 h, Table 1, TZM-bl cells, 1 μM, 48 h, 100% = Nef-defective HIV-1, read-out: HIV-1 Infectivity % Inhibition Norm. to Δ-Nef @ 1 μM

Oc1c(CCc2ccncc2)c(-c2ccc(C(F)(F)F)cc2)nn1-c1nc2ccccc2[nH]1 [Compound I-101, 1-(1H-1,3-benzodiazol-2-yl)-4-[2-(pyridin-4-yl)ethyl]-3-[4-(trifluoromethyl)phenyl]-1H-pyrazol-5-ol]
inhibition at 1 µM (HIV-1NL4-3; [2]): 100%
inhibition at 1 µM (HIV-1NL4-3; [3]): 128%
HIV-1 Infectivity % Inhibition Norm. to Δ-Nef @ 1 μM (HIV-1NL4-3; Table 1, TZM-bl cells, 1 μM, 48 h, 100% = Nef-defective HIV-1): 78.5%
% Cell Viability (TZM-bl cell line): 76.3%
Toxicity % Viability @ 1 μM (TZM-bl) (TZM-bl cell line): 76.3%
Kd (HIV-1 NefNL4-3): 1.77e-06 M
Kd (HIV-1 NefNL4-3; [4]): 2.91e-10 M
Kd (HIV-1 NefNL4-3; [5]): 2.91e-10 M
Kd (HIV-1 NefNL4-3; [6]): 2.91e-10 M
Nef NL4-3 Binding, SPR 1:1 or 2-site fitting KD1 (HIV-1 NefNL4-3; Table 1, 1:1 Langmuir fit where the KD2 cell says '1 to 1 fitting', else 2-site fit): No Interaction
T, minutes (residence time) (HIV-1 NefNL4-3; Table 4): 7.00E + 04 minutes
Kd (HIV-1 NefNL4-3; [7]): 1.47e-05 M
RU30/RUNef (extent of binding) (HIV-1 NefNL4-3): 1.33E- 02
Kd (HIV-1 Nef SF2): 1.43e-10 M
IC50 (HIV-1 NL4-3; Human immunodeficiency virus 1, NL43, PBMC, 96 h): ≤ 1 nM
Toxicity in HIV Replication PBMC (Toxic @ concentration) (uninfected PBMCs): Toxic @ 1 μM
Kd [1]: 25.4 nM

CS(=O)(=O)c1ccc(-c2nn(-c3nc4ccccc4[nH]3)c(O)c2CCc2ccc(F)cc2)cc1 [Compound I-148, 1-(1H-1,3-benzodiazol-2-yl)-4-[2-(4-fluorophenyl)ethyl]-3-(4-methanesulfonylphenyl)-1H-pyrazol-5-ol]
inhibition at 1 µM (HIV-1NL4-3; [2]): 98.1%
inhibition at 1 µM (HIV-1NL4-3; [3]): 98.1%
inhibition at 1 µM (HIV-1NL4-3; [8]): 98.1%
% Cell Viability (TZM-bl cell line): 75.5%
Percent Viability @ 1 μM (TZM-bl cells) (TZM-bl cell line): 75.5%
Kd (HIV-1 NefNL4-3): 6.56e-07 M
Kd (HIV-1 NefNL4-3; [4]): 3.33e-10 M
Kd (HIV-1 NefNL4-3; Nef NL4-3 Binding, SPR 1:1 or 2-site fitting KD2, Table 1, 2-site fit, second component): 1.77e-06 M
Kd (HIV-1 NefNL4-3; [5]): 3.33e-10 M
Kd (HIV-1 NefNL4-3; [6]): 3.33e-10 M
T, minutes (residence time) (HIV-1 NefNL4-3; Table 4): 3.26E + 04 minutes
RU30/RUNef (extent of binding) (HIV-1 NefNL4-3): 1.32E- 02
Kd (HIV-1 Nef SF2): 2.07e-11 M
HIV Replication PBMC IC50 vs. HIV NL4-3 (HIV-1 NL4-3): Not active
Toxicity in HIV Replication PBMC (Toxic @ concentration) (uninfected PBMCs): Toxic @ 1 μM
Kd [1]: 1.08 nM

CC(C)(C)OC(=O)N1CCC(CCc2c(-c3ccc(S(C)(=O)=O)cc3)nn(-c3nc4ccccc4[nH]3)c2O)CC1 [Compound I-201, tert-butyl 4-{2-[1-(1H-1,3-benzodiazol-2-yl)-5-hydroxy-3-(4-methanesulfonylphenyl)-1H-pyrazol-4-yl]ethyl}piperidine-1-carboxylate]
inhibition at 1 µM (HIV-1NL4-3; [2]): 53.4%
inhibition at 1 µM (HIV-1NL4-3; [3]): 53.4%
% Cell Viability (TZM-bl cell line): 70.5%
Toxicity % Viability @ 1 μM (TZM-bl) (TZM-bl cell line): 70.5%
Kd (HIV-1 NefNL4-3; [4]): 3.94e-07 M
Kd (HIV-1 NefNL4-3; [5]): 3.94e-07 M and 1.93e-06 M
Kd (HIV-1 NefNL4-3; [6]): 3.94e-07 M
T, minutes (residence time) (HIV-1 NefNL4-3; Table 4): 2.62E + 01 minutes
RU30/RUNef (extent of binding) (HIV-1 NefNL4-3): 1.83E- 02
Kd (HIV-1 Nef SF2): 5.01e-07 M
HIV Replication PBMC IC50 vs. HIV NL4-3 (HIV-1 NL4-3): Not active
Toxicity in HIV Replication PBMC (Toxic @ concentration) (uninfected PBMCs): Toxic @ 1 μM
Kd [1]: 23.8 nM

CC(C)OC(=O)N1CCC(c2nn(-c3nc4cc(Cl)ccc4[nH]3)c(O)c2CCC2CCOCC2)CC1 [Compound I-701, propan-2-yl4-[1-(5-chloro-1H-1,3-benzodiazol-2-yl)-5-hydroxy-4-[2-(oxan-4-yl)ethy1]-1H-pyrazol-3-yl]piperidine-1-carboxylate]
inhibition at 1 µM (HIV-1NL4-3; [2]): 100%
inhibition at 1 µM (HIV-1NL4-3; [3]): 106%
inhibition at 1 µM (HIV-1NL4-3; [8]): 106%
% Cell Viability (TZM-bl cell line): 98.7%
Percent Viability @ 1 μM (TZM-bl cells) (TZM-bl cell line): 98.7%
Kd (HIV-1 NefNL4-3): 2.64e-08 M
Kd (HIV-1 NefNL4-3; [4]): 2.88e-06 M
Kd (HIV-1 NefNL4-3; [5]): 2.88e-06 M
Kd (HIV-1 NefNL4-3; [6]): 2.88e-06 M
T, minutes (residence time) (HIV-1 NefNL4-3; Table 4): 4.73E + 00 minutes
Kd (HIV-1 NefNL4-3; [7]): 4.02e-06 M
RU30/RUNef (extent of binding) (HIV-1 NefNL4-3): 5.85E- 03
Kd (HIV-1 Nef SF2): 1.37e-07 M
Toxicity in HIV Replication PBMC (Toxic @ concentration) (uninfected PBMCs): Toxic @ 10 nM
Kd [1]: 19300 nM

CC(C)COC(=O)N1CCC(c2nn(-c3nc4ccccc4[nH]3)c(O)c2CCc2ccc(F)cc2)CC1 [Compound I-721, 2-methylpropyl 4-[1-(1H-1,3-benzodiazol-2-yl)-4-[2-(4-fluorophenyl)ethyl]-5-hydroxy-1H-pyrazol-3-yl]piperidine-1-carboxylate]
inhibition at 1 µM (HIV-1NL4-3; [2]): 100%
inhibition at 1 µM (HIV-1NL4-3; [3]): 120%
inhibition at 1 µM (HIV-1NL4-3; [8]): 120%
% Cell Viability (TZM-bl cell line): 84.3%
Percent Viability @ 1 μM (TZM-bl cells) (TZM-bl cell line): 84.3%
Kd (HIV-1 NefNL4-3): 2.24e-07 M
Kd (HIV-1 NefNL4-3; [4]): 3.72e-05 M
Kd (HIV-1 NefNL4-3; [5]): 3.72e-05 M
Kd (HIV-1 NefNL4-3; [6]): 3.72e-05 M
T, minutes (residence time) (HIV-1 NefNL4-3; Table 4): 4.69E + 02 minutes
Kd (HIV-1 NefNL4-3; [7]): 1.76e-06 M
RU30/RUNef (extent of binding) (HIV-1 NefNL4-3): 1.20E- 02
Kd (HIV-1 Nef SF2): 5.88e-06 M
HIV Replication PBMC IC50 vs. HIV NL4-3 (HIV-1 NL4-3): Borderline
Toxicity in HIV Replication PBMC (Toxic @ concentration) (uninfected PBMCs): Toxic @ 10 nM
Kd [1]: 82.6 nM
